Measured values published in ChEMBL document CHEMBL4177616, “Potent anti-melanogenic activity and favorable toxicity profile of selected 4-phenyl hydroxycoumarins in the zebrafish model and the computational molecular modeling studies” (Bioorg Med Chem, 2017).
Activity calls are given as the source filed them. The rule behind the calls is not given here.

Columns and labels:
[1] = Toxicity in wild type zebrafish embryos assessed as dead embryo at 25 ug/ml treated for 96 hrs post fertilization starting from 6 hrs post fertilization by inverted microscopic analysis relative to control; type: organism-based, Danio rerio; settings: in vivo, read-out: Activity
[2] = Toxicity in wild type zebrafish embryos assessed as dead embryo at 20 ug/ml treated for 96 hrs post fertilization starting from 6 hrs post fertilization by inverted microscopic analysis relative to control; type: organism-based, Danio rerio; settings: in vivo, read-out: Activity
[3] = Toxicity in wild type zebrafish embryos assessed as dead embryo at 10 ug/ml treated for 96 hrs post fertilization starting from 6 hrs post fertilization by inverted microscopic analysis relative to control; type: organism-based, Danio rerio; settings: in vivo, read-out: Activity
Melanocyte [4] = experiment: Anti-melanogenic activity in wild type zebrafish embryo melanocytes assessed as decrease in pigmentation at 2.5 mg/ml treated for 72 hrs post fertilization starting from 6 to 24 hrs post fertilization; type: functional, cell-based; settings: Danio rerio
Melanocyte [5] = experiment: Cytotoxicity against wild type zebrafish embryo melanocytes assessed as change in morphology at 2.5 mg/ml treated for 72 hrs post fertilization starting from 6 to 24 hrs post fertilization; type: cell-based, Danio rerio
Danio rerio [6] = species: Danio rerio; experiment: Toxicity in wild type zebrafish embryos assessed as teratogenic embryo at 25 ug/ml treated for 96 hrs post fertilization starting from 6 hrs post fertilization by inverted microscopic analysis relative to control; type: organism-based; settings: in vivo
Danio rerio [7] = species: Danio rerio; experiment: Toxicity in wild type zebrafish embryos assessed as normal embryo at 25 ug/ml treated for 96 hrs post fertilization starting from 6 hrs post fertilization by inverted microscopic analysis relative to control; type: organism-based; settings: in vivo
Danio rerio [8] = species: Danio rerio; experiment: Toxicity in wild type zebrafish embryos assessed as growth retardation at 25 ug/ml treated for 96 hrs post fertilization starting from 6 hrs post fertilization by inverted microscopic analysis relative to control; type: organism-based; settings: in vivo
Danio rerio [9] = species: Danio rerio; experiment: Toxicity in wild type zebrafish embryos assessed as growth retardation at 20 ug/ml treated for 96 hrs post fertilization starting from 6 hrs post fertilization by inverted microscopic analysis relative to control; type: organism-based; settings: in vivo
Danio rerio [10] = species: Danio rerio; experiment: Toxicity in wild type zebrafish embryos assessed as growth retardation at 5 ug/ml treated for 96 hrs post fertilization starting from 6 hrs post fertilization by inverted microscopic analysis relative to control; type: organism-based; settings: in vivo
Danio rerio [11] = species: Danio rerio; experiment: Toxicity in wild type zebrafish embryos assessed as notochord at 25 ug/ml treated for 96 hrs post fertilization starting from 6 hrs post fertilization by inverted microscopic analysis relative to control; type: organism-based; settings: in vivo
Danio rerio [12] = species: Danio rerio; experiment: Toxicity in wild type zebrafish embryos assessed as notochord at 10 ug/ml treated for 96 hrs post fertilization starting from 6 hrs post fertilization by inverted microscopic analysis relative to control; type: organism-based; settings: in vivo
Danio rerio [13] = species: Danio rerio; experiment: Toxicity in wild type zebrafish embryos assessed as eyes at 25 ug/ml treated for 96 hrs post fertilization starting from 6 hrs post fertilization by inverted microscopic analysis relative to control; type: organism-based; settings: in vivo
Danio rerio [14] = species: Danio rerio; experiment: Toxicity in wild type zebrafish embryos assessed as eyes at 5 ug/ml treated for 96 hrs post fertilization starting from 6 hrs post fertilization by inverted microscopic analysis relative to control; type: organism-based; settings: in vivo
Danio rerio [15] = species: Danio rerio; experiment: Toxicity in wild type zebrafish embryos assessed as otoliths at 25 ug/ml treated for 96 hrs post fertilization starting from 6 hrs post fertilization by inverted microscopic analysis relative to control; type: organism-based; settings: in vivo
Danio rerio [16] = species: Danio rerio; experiment: Toxicity in wild type zebrafish embryos assessed as otoliths at 20 ug/ml treated for 96 hrs post fertilization starting from 6 hrs post fertilization by inverted microscopic analysis relative to control; type: organism-based; settings: in vivo
Danio rerio [17] = species: Danio rerio; experiment: Toxicity in wild type zebrafish embryos assessed as otoliths at 10 ug/ml treated for 96 hrs post fertilization starting from 6 hrs post fertilization by inverted microscopic analysis relative to control; type: organism-based; settings: in vivo
Danio rerio [18] = experiment: Toxicity in wild type zebrafish embryos assessed as pericardial edema at 5 ug/ml treated for 96 hrs post fertilization starting from 6 hrs post fertilization by inverted microscopic analysis relative to control; type: organism-based; settings: in vivo
Danio rerio [19] = experiment: Toxicity in wild type zebrafish embryos assessed as yolk edema at 20 ug/ml treated for 96 hrs post fertilization starting from 6 hrs post fertilization by inverted microscopic analysis relative to control; type: organism-based; settings: in vivo
Danio rerio [20] = species: Danio rerio; experiment: Toxicity in wild type zebrafish embryos assessed as heart beat at 50 ug/ml treated for 96 hrs post fertilization starting from 6 hrs post fertilization by inverted microscopic analysis relative to control; type: organism-based; settings: in vivo
Danio rerio [21] = species: Danio rerio; experiment: Toxicity in wild type zebrafish embryos assessed as heart beat at 15 ug/ml treated for 96 hrs post fertilization starting from 6 hrs post fertilization by inverted microscopic analysis relative to control; type: organism-based; settings: in vivo
Danio rerio [22] = species: Danio rerio; experiment: Toxicity in wild type zebrafish embryos assessed as heart beat at 5 ug/ml treated for 96 hrs post fertilization starting from 6 hrs post fertilization by inverted microscopic analysis relative to control; type: organism-based; settings: in vivo
Danio rerio [23] = species: Danio rerio; experiment: Toxicity in wild type zebrafish embryos assessed as blood circulation at 20 ug/ml treated for 96 hrs post fertilization starting from 6 hrs post fertilization by inverted microscopic analysis relative to control; type: organism-based; settings: in vivo
Danio rerio [24] = species: Danio rerio; experiment: Toxicity in wild type zebrafish embryos assessed as blood circulation at 10 ug/ml treated for 96 hrs post fertilization starting from 6 hrs post fertilization by inverted microscopic analysis relative to control; type: organism-based; settings: in vivo
Danio rerio [25] = species: Danio rerio; experiment: Toxicity in wild type zebrafish embryos assessed as unhatched embryo at 25 ug/ml treated for 96 hrs post fertilization starting from 6 hrs post fertilization by inverted microscopic analysis relative to control; type: organism-based; settings: in vivo
Danio rerio [26] = species: Danio rerio; experiment: Toxicity in wild type zebrafish embryos assessed as unhatched embryo at 10 ug/ml treated for 96 hrs post fertilization starting from 6 hrs post fertilization by inverted microscopic analysis relative to control; type: organism-based; settings: in vivo
Danio rerio [27] = species: Danio rerio; experiment: Toxicity in wild type zebrafish embryos assessed as unhatched embryo at 5 ug/ml treated for 96 hrs post fertilization starting from 6 hrs post fertilization by inverted microscopic analysis relative to control; type: organism-based; settings: in vivo
Danio rerio [28] = species: Danio rerio; experiment: Toxicity in wild type zebrafish embryos assessed as head malformation at 10 ug/ml treated for 96 hrs post fertilization starting from 6 hrs post fertilization by inverted microscopic analysis relative to control; type: organism-based; settings: in vivo
Danio rerio [29] = species: Danio rerio; experiment: Toxicity in wild type zebrafish embryos assessed as head malformation at 5 ug/ml treated for 96 hrs post fertilization starting from 6 hrs post fertilization by inverted microscopic analysis relative to control; type: organism-based; settings: in vivo
Danio rerio [30] = species: Danio rerio; experiment: Toxicity in wild type zebrafish embryos assessed as skeletal deformities at 5 ug/ml treated for 96 hrs post fertilization starting from 6 hrs post fertilization by inverted microscopic analysis relative to control; type: organism-based; settings: in vivo
Tyrosinase (Danio rerio) = biological target: T1, Tyrosinase (Danio rerio) (UniProt A0A8M1PAD4); experiment: Inhibition of zebrafish embryo tyrosinase assessed as residual activity at 15 ug/ml after 48 hrs relative to control
T1 sequence (whole entry): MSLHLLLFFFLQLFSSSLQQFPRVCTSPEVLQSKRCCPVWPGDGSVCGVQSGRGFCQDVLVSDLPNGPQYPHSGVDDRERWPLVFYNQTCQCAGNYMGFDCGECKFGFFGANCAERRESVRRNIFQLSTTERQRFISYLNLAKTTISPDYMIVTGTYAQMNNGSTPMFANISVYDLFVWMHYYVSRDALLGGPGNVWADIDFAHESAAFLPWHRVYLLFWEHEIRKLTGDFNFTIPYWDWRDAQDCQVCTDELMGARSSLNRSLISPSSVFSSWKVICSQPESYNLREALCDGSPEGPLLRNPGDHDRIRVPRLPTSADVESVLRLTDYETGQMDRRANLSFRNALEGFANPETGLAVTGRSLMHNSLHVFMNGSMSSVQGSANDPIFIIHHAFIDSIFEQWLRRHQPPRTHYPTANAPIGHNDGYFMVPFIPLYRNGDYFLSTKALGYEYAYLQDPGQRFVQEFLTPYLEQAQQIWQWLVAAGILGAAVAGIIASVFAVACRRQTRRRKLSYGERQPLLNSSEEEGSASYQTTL

Row | SMILES | mortality at 25 ug/ml [1] [%] | mortality at 20 ug/ml [2] [%] | mortality at 10 ug/ml [3] [%] | Activity (Melanocyte [4]) | Activity (Melanocyte [5]) | Activity (Danio rerio [6]) [%] | Activity (Danio rerio [7]) [%] | Activity (Danio rerio [8]) [%] | Activity (Danio rerio [9]) [%] | Activity (Danio rerio [10]) [%] | Activity (Danio rerio [11]) [%] | Activity (Danio rerio [12]) [%] | Activity (Danio rerio [13]) [%] | Activity (Danio rerio [14]) [%] | Activity (Danio rerio [15]) [%] | Activity (Danio rerio [16]) [%] | Activity (Danio rerio [17]) [%] | Activity (Danio rerio [18]) [%] | Activity (Danio rerio [19]) [%] | Activity (Danio rerio [25]) [%] | other results
1 | O=c1cc(-c2ccccc2)c2c(O)cc(O)cc2o1 | 0 | 0 | 0 | Active | Non-Toxic | 0 | 100 | 0 | 0 | 0 | 0 | 0 | 0 | 0 | 0 | 0 | 0 | 0 | 0 | 0 | Activity (Danio rerio [20]): 0%; Activity (Danio rerio [21]): 0%; Activity (Danio rerio [22]): 0%; Activity (Danio rerio [23]): 0%; Activity (Danio rerio [24]): 0%; Activity (Danio rerio [26]): 0%; Activity (Danio rerio [27]): 0%; Activity (Danio rerio [28]): 0%; Activity (Danio rerio [29]): 0%; Activity (Danio rerio [30]): 0%; Activity (Tyrosinase (Danio rerio)): 76%
2 | O=c1cc(-c2ccccc2)c2ccc(O)cc2o1 | 0 | 0 | 0 | Active | Non-Toxic | 0 | 100 | 0 | 0 | 0 | 0 | 0 | 0 | 0 | 0 | 0 | 0 | 0 | 0 | 0 | Activity (Danio rerio [20]): 0%; Activity (Danio rerio [21]): 0%; Activity (Danio rerio [22]): 0%; Activity (Danio rerio [23]): 0%; Activity (Danio rerio [24]): 0%; Activity (Danio rerio [26]): 0%; Activity (Danio rerio [27]): 0%; Activity (Danio rerio [28]): 0%; Activity (Danio rerio [29]): 0%; Activity (Danio rerio [30]): 0%; Activity (Tyrosinase (Danio rerio)): 92%
3 | Oc1ccc(O)cc1 [HYDROQUINONE] | 93.3 | 70 | 63.3 |  |  | 6.7 | 0 | 100 | 100 | 0 | 0 | 0 | 100 | 0 | 100 | 100 | 80 | 71.7 | 100 | 100 | Activity (Danio rerio [22]): 0%; Activity (Danio rerio [23]): 100%; Activity (Danio rerio [24]): 90%; Activity (Danio rerio [26]): 0%; Activity (Danio rerio [27]): 0%; Activity (Danio rerio [28]): 100%; Activity (Danio rerio [29]): 0%; Activity (Danio rerio [30]): 0%
4 | O=c1cc(CO)occ1O [KOJIC ACID] | 0 |  |  | Active | Non-Toxic | 0 | 100 | 0 |  |  | 0 |  | 0 |  | 0 |  |  |  |  | 0 | 
